# Laboratory results reported in publication PMC8412326, “A novel angiotensin I-converting enzyme inhibitory peptide derived from the trypsin hydrolysates of salmon bone proteins” (PLoS ONE, 2021).
# Read-outs that look alike come from different tables or passages of the source. Ends that are not written are not given here.
# Key:
# ACE [1] = conditions: cited from earlier work
# Description: Trp-Pro-Met-Gly-Phe (636.75 Da) is one such example, obtained from the trypsin hydrolysates of Cyclina sinensis, along with Val-Val-Ser-Leu-Ser-Ile-Pro-Arg (869.53 Da) which comes from pigeon pea seeds. There have been some ACE-inhibitory peptides reported to carry out their ACE-inhibitory activity through an uncompetitive pattern, including Ala-Trp, Phe-Tyr, and Ile-Trp which are derived from wakame hydrolysates of (Undaria pinnatifida) using protease, and also Phe-Glu-Ser-As ...
# ACE [2] = conditions: cited from earlier work; remark: listed apart in the source
# Description: For example, Phe-Leu was isolated from the hydrolysate of chum salmon muscle by Ono et al.. […] In addition, peptides offering antihypertensive capabilities obtained from ...
# [3] = biological target: T1, ACE (E.C. 3.4.15.1) derived from rabbit lungs (Oryctolagus cuniculus, UniProt P12822); assay: ACE-inhibitory activity assay (HHL substrate, TNBS); assay type: biochemical; conditions: synthetic peptide, purity at least 95%; 5 mM HHL, pH 8.3, 37°C, 1 h, 420 nm
# T1 construct: ACE (E.C. 3.4.15.1) derived from rabbit lungs; purchased Sigma Chemical Co. (St. Louis, MO, USA); host or cells: rabbit lung tissue
# T1 sequence (P12822 34-1310): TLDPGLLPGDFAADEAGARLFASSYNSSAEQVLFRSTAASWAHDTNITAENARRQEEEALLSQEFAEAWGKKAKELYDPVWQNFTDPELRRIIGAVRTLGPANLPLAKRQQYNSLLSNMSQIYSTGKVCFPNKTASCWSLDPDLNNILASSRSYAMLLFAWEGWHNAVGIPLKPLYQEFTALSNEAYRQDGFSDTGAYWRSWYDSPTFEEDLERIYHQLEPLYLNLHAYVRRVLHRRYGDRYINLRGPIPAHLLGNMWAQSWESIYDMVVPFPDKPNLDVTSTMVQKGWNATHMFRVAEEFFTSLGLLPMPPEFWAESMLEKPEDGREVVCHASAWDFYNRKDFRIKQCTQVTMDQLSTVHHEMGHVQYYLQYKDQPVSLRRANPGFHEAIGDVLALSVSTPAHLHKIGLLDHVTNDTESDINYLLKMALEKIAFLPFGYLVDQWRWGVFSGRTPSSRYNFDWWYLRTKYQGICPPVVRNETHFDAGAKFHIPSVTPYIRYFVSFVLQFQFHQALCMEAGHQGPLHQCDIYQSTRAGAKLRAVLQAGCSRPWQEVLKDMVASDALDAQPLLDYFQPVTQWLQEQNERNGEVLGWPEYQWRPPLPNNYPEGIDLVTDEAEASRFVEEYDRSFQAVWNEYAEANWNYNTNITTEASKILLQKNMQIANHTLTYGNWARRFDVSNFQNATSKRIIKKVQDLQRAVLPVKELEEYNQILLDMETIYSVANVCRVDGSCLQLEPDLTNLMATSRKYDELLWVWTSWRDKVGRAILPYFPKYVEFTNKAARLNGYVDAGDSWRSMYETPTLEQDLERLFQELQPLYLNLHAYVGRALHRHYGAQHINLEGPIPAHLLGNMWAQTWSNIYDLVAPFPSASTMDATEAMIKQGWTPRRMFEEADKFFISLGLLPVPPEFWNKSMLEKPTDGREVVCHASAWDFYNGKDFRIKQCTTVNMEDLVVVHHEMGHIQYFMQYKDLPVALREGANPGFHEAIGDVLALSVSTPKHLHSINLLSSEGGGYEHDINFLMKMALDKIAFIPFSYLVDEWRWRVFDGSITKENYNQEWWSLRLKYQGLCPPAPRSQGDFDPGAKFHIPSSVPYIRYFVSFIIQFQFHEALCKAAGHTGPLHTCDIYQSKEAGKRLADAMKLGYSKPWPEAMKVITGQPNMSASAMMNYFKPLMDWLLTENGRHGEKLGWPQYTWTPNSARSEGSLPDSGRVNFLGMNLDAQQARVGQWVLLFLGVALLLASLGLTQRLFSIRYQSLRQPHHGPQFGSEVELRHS
# Description: (§1) The chemicals used in the study included ACE (E.C. 3.4.15.1) derived from rabbit lungs, acetonitrile, bovine serum albumin (BSA), captopril, dithiothreitol (DTT), hippuric acid, hippuryl-L-histidyl-L-leucine (HHL), o-phthaldehyde (OPA), sodium dodecyl sulfate (SDS), sodium tetraborate decahydrate, 2, 4, 6-trinitrobenzenesulfonic acid (TNBS), and Trypsin from porcine pancreas (1500 U/mg), all of which were obtained from Sigma Chemical Co. (St. Louis, MO, USA). In addition, dithiothreitol (DTT) and L-serine were purchased from Merck (Germany). All chemicals used were of analytical grade.
# The ACE -inhibition test was performed following the approach of Ibrahim et al.. At the beginning of the inhibition assay, a 10 μL aliquot of the peptide sample was added to 31 μL of 50 mM potassium phosphate buffer with a pH of 8.3 containing 0.3 M NaCl in each well of the 96-well microplate, while PBS was used for the control reaction. […] The ACE -inhibitory activity was determined by measuring the absorbance at 420 nm. […] The following Eq (3) was used to calculate the percentage of ACE -inhibitory activity: ACE-inhibitoryactivity%=C−Bi−S−Bs/C−Bi×100 (3) in which the absorbance of the control is given by C (100% activity), the sample (inhibitor peptide) is given by S, the blank inhibitor (HHL alone) is given by Bi, and the blank sample (peptide alone) is represented by Bs. […]
# [4] = biological target: T1, ACE (E.C. 3.4.15.1) derived from rabbit lungs; assay: ACE inhibition kinetics (Lineweaver-Burk); assay type: biochemical; conditions: secondary plot 1/Vmax vs peptide concentration; 37°C; n = 3
# Description: as §1
# ACE-inhibition kinetics were evaluated using varied HHL concentrations (0.5, 1, 3, 5, and 7 mM) to which varied FCLYELAR peptide concentrations were introduced (0.05, 0.1 and 0.2 mM). The reaction assay required that the peptide concentrations which had been dissolved in PBS undergo incubation with the ACE solution which contained the different HHL concentrations which had been dissolved in the reaction buffer. Aliquots of sodium sulfite and TNBS were subsequently added prior to 80minutes of incubation at a temperature of 37°C, allowing the level of ACE-inhibitory activity to be evaluated. […] Secondary plots were then used to determine the inhibitor constant (Ki). […]
# [5] = Solubility in ultrapure water; assay type: physicochemical; conditions: read-out: Solubility in ultrapure water (good solubility at concentrations not exceeding the value)
# [6] = hen egg white lysozyme (HEWL) hydrolysates
substance,measurement,setting,value
YLYEIARR [from the tryptic hydrolysate found in human plasma],Inhibition pattern,ACE [1]; tryptic hydrolysate of human plasma,uncompetitive
FESNFNTQATNR [from lysozyme (HEWL) hydrolysates of hens’ eggs],Inhibition pattern,ACE [1]; [6],uncompetitive
same,Ki,ACE [1]; [6],82 µg/mL
Phe-Tyr,Inhibition pattern,ACE [1]; wakame hydrolysates,uncompetitive
VVSLSIPR [from pigeon pea seeds],Inhibition pattern,ACE [1]; pigeon pea seeds,competitive
FGMPLDR [from Ulva intestinalis],IC50,ACE [2]; Ulva intestinalis,219 µM
"FCLYELAR [FCLYELAR, Phe-Cys-Leu-Tyr-Glu-Leu-Ala-Arg]",IC50,[3],31.63 ± 0.15 µM
same,Ki,[4],24.8 µM
same,solubility,[5],≥ 5000 µg/mL
VSQLTR [from flounder muscle hydrolysates],IC50,ACE [2]; flounder muscle hydrolysate,105 µM
Gly-Asp-Leu-Gly-Lys-Thr-Thr-Thr-Val-Ser-Asn-Trp-Ser-Pro-Pro-Lys-Try-Lys-Asp-Thr-Pro [from tuna frame protein],IC50,ACE [2]; tuna frame protein,11.3 µM
Ile-Trp,Inhibition pattern,ACE [1]; wakame hydrolysates,uncompetitive
Trp-Pro-Met-Gly-Phe [from trypsin hydrolysates of Cyclina sinensis],Inhibition pattern,ACE [1]; Cyclina sinensis trypsin hydrolysates,competitive
MEVFVP [from flounder muscle hydrolysates],IC50,ACE [2]; flounder muscle hydrolysate,79 µM
Phe-Leu,IC50,"ACE [2]; chum salmon muscle hydrolysate, thermolysin",13.6 µM
MELVLR [from Ulva intestinalis],IC50,ACE [2]; Ulva intestinalis,237 µM
FGASTRGA [from Alaska pollack hydrolysates with pepsin],IC50,"ACE [2]; Alaska pollack hydrolysate, pepsin",14.7 µM
Ala-Trp,Inhibition pattern,ACE [1]; wakame hydrolysates,uncompetitive
